Data on three compounds can be found in publication PMC7931078 (Molecules, 2021).

One data set concerns A. baumanni. Briefly: Antibacterial broth microdilution, A. baumanni. It counts as cell-based. The conditions noted are these: read-out: MIC against A. baumanni.
The subject of another data set is HEK293 cells. Briefly: In vitro cytotoxicity assay. It counts as cell-based. The conditions noted are these: Homo sapiens, HEK293, read-out: IC50 HEK293.
Data set [1] relates to Trypanosoma brucei brucei 427 trypomastigotes. Description: In vitro anti-trypanosomal assay. It counts as cell-based. Conditions: 427 strain, 24 h, read-out: IC50 T. b. brucei. How it is done: Trypanosoma brucei brucei 427 trypomastigotes were cultured in iscove’s modified Dulbecco’s medium (IMDM; Lonza, Basel, Switzerland) supplemented with 10% fetal calf serum, HMI-9 supplement, hypoxanthine and penicillin/streptomycin at 37 °C in a 5% CO2 incubator. Serial dilutions of test compounds were incubated with the parasites in 96-well plates for 24 h and residual parasite viability in the wells determined as previously reported.

For data set [2], the system named is ESKAPE (E. faecium, A. baumanni, K. pneumoniae, P. aeruginosa, S. aureus) pathogens. Briefly: Antibacterial broth microdilution, ESKAPE pathogens. The conditions noted are these: colistin and vancomycin as standards. The data set is classed as cell-based.
The subject of the next data set is S. aureus (MRSA). Description: microbe, parasite or virus in culture. It counts as cell-based. Conditions: Staphylococcus aureus, read-out: MIC against S. aureus (MRSA).
Data set [3] relates to 3D7 strain of Plasmodium falciparum. Briefly: In vitro antiplasmodial assay (pLDH). It counts as cell-based. Conditions: Plasmodium falciparum, 3D7, 48 h, read-out: IC50 Pf 3D7, chloroquine sensitive strain 3D7, 48 h, pLDH.
Data set [4] has as its system Mycobacterium tuberculosis pMSp12::GFP. Description: microbe, parasite or virus in culture. It counts as cell-based.
In a further data set the test system is Mtb. Also noted: method as in PMID 29487031. Conditions: first line treatment regimen; cited from earlier work.

Converted amounts (≈) assume the structure as drawn. “Also recorded” adds a separate entry of the source. Where two headings read alike, the source gives them in different places. Where only a bound is given, the exact number is not on record here.

Consider `CCn1cc(C(=O)NCCNCCO)c(=O)c2cc(OCc3ccc(C(F)(F)F)cc3)c(Cl)cc21` [Compound 8c, 7-Chloro-1-ethyl-N-(2-((2-hydroxyethyl)amino)ethyl)-4-oxo-6-((4-(trifluoromethyl)benzyl)oxy)-1,4-dihydroquinolone-3-carboxamide], for which the figures for the MIC with A. baumanni and with S. aureus (MRSA) were 32 µg/mL (≈ 62.5 µM) and 16 µg/mL (≈ 31.3 µM), respectively. For the same compound, the IC50 is greater than 32 µg/mL in the data set with HEK293 cells, 1.5 µM in data set [1] and less than 2 µM in [1] (Trypanosoma brucei). Besides, the “activity against ESKAPE pathogens (in words)” value in data set [2] is “moderate to poor activity; also recorded: moderate to weak, narrow spectrum activity”.
The compound `CCn1cc(C(=O)OC)c(=O)c2cc(C(=O)/C=C/c3c(Cl)cccc3Cl)ccc21` [Compound 16, Methyl (E)-Methyl-6-(3-(2,6-dichlorophenyl)acryloyl)-1-ethyl-4-oxo-1,4-dihydroquinolone-3-carboxylate] displayed a melting point of 247 to 249 °C. Besides, the IC50 in [3] was found to be 11.7 µM. The IC50 in the data set with HEK293 cells is greater than 32 µg/mL. For the same compound, in [1], the IC50 came out at 1.5 µM. For the same compound, the IC50 in data set [1] (Trypanosoma brucei) is less than 2 µM. The compound further had an MIC90 in data set [4] of 0.9 µM (≈ 0.387 µg/mL). The compound also registered an MIC90 in data set [4] (Mycobacterium tuberculosis, H37RV, 336 h) of 0.9 to 2 µM (≈ 0.387 to 0.861 µg/mL).
Regarding `CC[C@@H](CO)NCCN[C@@H](CC)CO` [ethambutol], the MIC in the data set on Mtb is recorded as 15 µM (≈ 3.06 µg/mL).
